Experimental data reported in patent US20240360177A1, “PEPTIDES WITH ANTIMICROBIAL ACTIVITIES” (priority 2021, published 2024).
Converted amounts (≈) assume the structure as drawn. Where two headings read alike, the source gives them in different places. Non-standard residues stand in square brackets, D forms with d. Residues, ends and D or L forms follow the SMILES beside them. Ahp = NCCCCCCC(=O)O; Ava = NCCCCC(=O)O; βAla = NCCC(=O)O

Experiments:
[1] = system: Microsporum gypseum ATCC 14683; test: microbe, parasite or virus in culture; conditions: Nannizzia gypsea, ATCC14683, read-out: MIC Microsporum gypseum
C. albicans [2] = test: microbe, parasite or virus in culture; conditions: Candida albicans, ATCC90028, 24 h, read-out: MIC C. albicans
C. neoformans [3] = test: microbe, parasite or virus in culture; conditions: Cryptococcus neoformans, ATCC90112, 72 h, read-out: MIC C. neoformans
[4] = system: Trichophyton rubrum ATCC MYA-4438; test: microbe, parasite or virus in culture; conditions: read-out: MIC Trichophyton rubrum
C. krusei [5] = test: microbe, parasite or virus in culture; conditions: Pichia kudriavzevii, 24 h, read-out: MIC C. krusei
C. glabrata [6] = test: microbe, parasite or virus in culture; conditions: Nakaseomyces glabratus, ATCC90030, 24 h, read-out: MIC C. glabrata
[7] = system: Epidermophyton floccosum ATCC 52066; test: microbe, parasite or virus in culture; conditions: ATCC52066, read-out: MIC Epidermophyton floccosum
C. gattii [8] = test: microbe, parasite or virus in culture; conditions: Cryptococcus gattii, 72 h, read-out: MIC C. gattii
C. auris [9] = test: microbe, parasite or virus in culture; conditions: Candidozyma auris, 24 h, read-out: MIC C. auris
C. tropicalis [10] = test: microbe, parasite or virus in culture; conditions: Candida tropicalis, ATCC90874, 24 h, read-out: MIC C. tropicalis
C. parapsilosis [11] = test: microbe, parasite or virus in culture; conditions: Lodderomyces parapsilosis, ATCC22019, 24 h, read-out: MIC C. parapsilosis
C. tropicalis [12] = conditions: 24 h
[13] = system: Salmonella senftenberg CDC 127; assay type: cell-based
[14] = system: Escherichia coli ATCC 25922; assay type: cell-based
[15] = system: Trichophyton rubrum ATCC MYA-4438
[16] = system: Microsporum gypseum ATCC 14683
C. albicans [17] = conditions: 24 h
C. parapsilosis [18] = conditions: 24 h
C. glabrata [19] = conditions: 24 h
[20] = system: Epidermophyton floccosum ATCC 52066
C. krusei [21] = conditions: 24 h
[22] = system: Staphylococcus aureus ATCC 29213; assay type: cell-based
C. auris [23] = conditions: 24 h
[24] = system: Mycobacterium smegmatis ATCC 700084; assay type: cell-based; conditions: ATCC 700084, 48 h
[25] = system: Enterococcus faecium ATCC 700221; conditions: CAMHB
C. gattii [26] = conditions: 72 h
C. neoformans [27] = conditions: 72 h
[28] = system: Pseudomonas aeruginosa ATCC 27853; assay type: cell-based
in vitro [29] = conditions: human, EC50 cytotoxicity in HepG2, intracellular ATP assay
[30] = Plasma pharmacokinetics after single IV or IP dose in mice; assay type: in vivo, CD-1 mice
Procedure: The in vitro enzymatic and serum stability of the peptides is manifested by the in vivo plasma pharmacokinetic (PK) profile. A single 5 mg/kg intravenous injection (via tail vein) and a single 7.5 mg/kg intraperitoneal dose of SEQ ID NO: 7 were administered to 2 groups of CD-1 mice (n=3 per group). […] Serial blood samples were collected from the saphenous vein into EDTA-K2 as anti-coagulant at time points up to 4 hrs or 8 hrs after the intravenous or intraperitoneal doses. Plasma was separated and analyzed by an LC-MS/MS method as follows. Due to the small blood volume collected from each mouse, the plasma was pooled from 3 mice before analysis. A 50 μL of plasma was protein precipitated with a 100 μL solution of 300 ng/mL TAT peptide ([…]; SEQ ID NO: 99) as the internal standard in 5% trichloroacetic acid. After centrifugation, an aliquot of the supernatant was injected onto an HPLC column (Waters ACQUITY UPLC HSS T3, 2.1*50 mm, 1.8 μm) eluted with a gradient of mobile phase containing 0.1% perfluoropentanoic acid (PFPA) in water and 0.1% PFPA in acetonitrile. The peptide and the internal standard were detected using a Triple Quad 6500+ mass spectrometer operated with electro-spray ionization in the positive-ion SRM mode. The calibration curve range was from 10 to 4000 ng/mL. The mean plasma concentration of SEQ ID NO: 7 after the single intravenous and intraperitoneal doses are depicted in FIG. 2.
C0 or Cmax is concentration at time of injection for IV dose, or maximal concentration after IP dose; tmax is the time when C0 or Cmax was observed; t1/2 is plasma half-life; AUC is area under the plasma concentration vs. time curve; F is absolute bioavailability.

Rhizopus arrhizus = conditions: 24 h
Endoproteinase Arg-C = molecular target: T1, Endoproteinase Arg-C (Hathewaya histolytica, UniProt P09870); test: Endoproteinase Arg-C digestion stability; assay type: in vitro ADME; conditions: 37° C.
T1 construct: purchased Sigma Aldrich 11370529001
T1 sequence (P09870 51-181): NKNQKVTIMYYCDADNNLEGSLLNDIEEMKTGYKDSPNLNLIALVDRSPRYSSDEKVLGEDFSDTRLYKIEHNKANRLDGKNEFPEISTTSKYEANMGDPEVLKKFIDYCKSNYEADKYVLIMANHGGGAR
T1 sequence (P09870 191-526): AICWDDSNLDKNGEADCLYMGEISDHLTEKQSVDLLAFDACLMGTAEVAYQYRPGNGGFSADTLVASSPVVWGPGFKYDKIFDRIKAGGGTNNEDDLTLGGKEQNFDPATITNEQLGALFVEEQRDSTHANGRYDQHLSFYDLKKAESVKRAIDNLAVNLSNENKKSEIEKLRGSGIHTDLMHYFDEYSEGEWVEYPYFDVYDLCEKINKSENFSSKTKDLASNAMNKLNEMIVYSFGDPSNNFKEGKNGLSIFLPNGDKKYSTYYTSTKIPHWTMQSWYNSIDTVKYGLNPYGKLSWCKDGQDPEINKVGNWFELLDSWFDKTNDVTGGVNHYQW

Coccidioides species = conditions: N = 3 strains; 48-72 hrs; >50% inhibition
[31] = Acute toxicity in CD-1 mice; conditions: both sexes, mouse, in vivo
Procedure: Acute toxicity and subacute toxicity of ACPs were tested in CD-1 mice. In the acute toxicity study, groups of CD-1 male or female mice were administered single intravenous or intraperitoneal escalating doses (n=2-3 per dose) of the peptides dissolved in normal saline for injection or in phosphate buffered saline. The intravenous dose was administered via tail vein with a slow push over 15-20 seconds. Doses were escalated based on tolerability.

[32] = Subacute toxicity in CD-1 mice; assay type: in vivo; conditions: daily IP for 7 days
Procedure: In the subacute toxicity study, groups of CD-1 male or female mice were administered seven consecutive daily intraperitoneal doses (n=3 per dose) of the peptides (SEQ ID NO: 7, SEQ ID NO: 29, SEQ ID NO: 53) dissolved in normal saline for injection. Each peptide was evaluated at 2 to 3 dose levels ranging from 2.5 to 7.5 mg/kg/day. Mice were weighed at least once daily and observed at least twice daily for any abnormal findings and determination of overall health. At 24 hrs after the last dose, mice were humanely euthanized, with blood collected through cardiac puncture into K2EDTA microtainers to assess hematological parameters. All three peptides were tolerated at the highest dose evaluated (7.5 mg/kg/day) for 7 days.

Paecilomyces variotii = conditions: 48 h
C. dubliniensis = conditions: 24 h
in vitro [33] = conditions: human, human serum, full strength
[34] = CD-1, mouse, IP 7.5 mg/kg, plasma
[35] = CD-1, mouse, IV 5 mg/kg, plasma

Compound: CC[C@H](C)C[C@H](C)CCCCCCCCC(=O)N[C@H]1C[C@@H](O)[C@@H](NCCN)NC(=O)[C@@H]2[C@@H](O)CCN2C(=O)[C@H]([C@H](O)CCN)NC(=O)[C@H]([C@H](O)[C@@H](O)c2ccc(O)cc2)NC(=O)[C@@H]2C[C@@H](O)CN2C(=O)[C@H]([C@@H](C)O)NC1=O [CAS, caspofungin]
- MIC [1]: 0.12 µg/mL (≈ 0.11 µM)
- MIC (C. albicans [2]): 0.03 µg/mL (≈ 0.0274 µM)
- MIC Range Fusarium spp. (Fusarium spp.; N = 3 strains, 48 hrs): 32 µg/mL (≈ 29.3 µM)
- MIC (C. neoformans [3]): 16 µg/mL (≈ 14.6 µM)
- MIC [4]: 2 µg/mL (≈ 1.83 µM)
- MIC (C. krusei [5]): 0.25 µg/mL (≈ 0.229 µM)
- MIC (C. glabrata [6]): 0.06 µg/mL (≈ 0.0549 µM)
- MIC [7]: 0.06 µg/mL (≈ 0.0549 µM)
- MIC (C. gattii [8]): 16 µg/mL (≈ 14.6 µM)
- MIC (C. auris [9]): 0.06 µg/mL (≈ 0.0549 µM)
- MIC (C. tropicalis [10]): 0.03 µg/mL (≈ 0.0274 µM)
- MIC (C. parapsilosis [11]): 0.25 µg/mL (≈ 0.229 µM)
- MIC Range Scedosporium spp. (Scedosporium spp.; N = 2 strains, 72 hrs): 32 µg/mL (≈ 29.3 µM)

Compound: N=C(N)NCCC[C@@H](N)C(=O)N[C@@H](CCCNC(=N)N)C(=O)N[C@H](CCCNC(=N)N)C(=O)NCCCCCCC(=O)N[C@H](CCCNC(=N)N)C(=O)N[C@@H](CCCNC(=N)N)C(=O)N[C@H](CCCNC(=N)N)C(=O)NCCCCC(=O)N[C@H](CCCNC(=N)N)C(=O)N[C@@H](CCCNC(=N)N)C(=O)N[C@H](CCCNC(=N)N)C(=O)N[C@@H](CCCNC(=N)N)C(=O)NCCCCC(=O)N[C@H](CCCNC(=N)N)C(=O)N[C@@H](CCCNC(=N)N)C(=O)N[C@H](CCCNC(=N)N)C(=O)N[C@@H](CCCNC(=N)N)C(=O)N[C@@H](CS)C(=O)O [SEQ ID NO: 5, rRr-(Ahp)-rRr-(Ava)-rRrR-(Ava)-rRrR-Cys] (H-[dR]R[dR][Ahp][dR]R[dR][Ava][dR]R[dR]R[Ava][dR]R[dR]RC-OH)
- MIC Range Fusarium spp. (Fusarium spp.; 48 h): 0.5 to 4 µg/mL
- MIC C. tropicalis (C. tropicalis [12]): 0.25 µg/mL (≈ 0.0949 µM)
- MIC Salmonella senftenberg [13]: 16 µg/mL (≈ 6.08 µM)
- MIC Escherichia coli [14]: 16 µg/mL (≈ 6.08 µM)
- MIC Trichophyton rubrum [15]: 2 µg/mL (≈ 0.76 µM)
- MIC Microsporum gypseum [16]: 64 µg/mL (≈ 24.3 µM)
- MIC C. albicans (C. albicans [17]): 1 µg/mL (≈ 0.38 µM)
- MIC C. parapsilosis (C. parapsilosis [18]): 0.25 µg/mL (≈ 0.0949 µM)
- MIC C. glabrata (C. glabrata [19]): 0.5 µg/mL (≈ 0.19 µM)
- MIC Epidermophyton floccosum [20]: 16 µg/mL (≈ 6.08 µM)
- MIC C. krusei (C. krusei [21]): 1 µg/mL (≈ 0.38 µM)
- MIC Staphylococcus aureus [22]: 8 µg/mL (≈ 3.04 µM)
- MIC C. auris (C. auris [23]): 0.25 µg/mL (≈ 0.0949 µM)
- MIC Mycobacterium smegmatis [24]: 2 µg/mL (≈ 0.76 µM)
- MIC Enterococcus faecium [25]: 16 µg/mL (≈ 6.08 µM)
- MIC C. gattii (C. gattii [26]): 0.5 µg/mL (≈ 0.19 µM)
- MIC C. neoformans (C. neoformans [27]): 1 µg/mL (≈ 0.38 µM)
- MIC Pseudomonas aeruginosa [28]: 32 µg/mL (≈ 12.2 µM)

Compound: N=C(N)NCCC[C@@H](N)C(=O)N[C@@H](CCCNC(=N)N)C(=O)N[C@H](CCCNC(=N)N)C(=O)NCCC(=O)N[C@H](CCCNC(=N)N)C(=O)N[C@@H](CCCNC(=N)N)C(=O)N[C@H](CCCNC(=N)N)C(=O)NCCC(=O)N[C@H](CCCNC(=N)N)C(=O)N[C@@H](CCCNC(=N)N)C(=O)N[C@H](CCCNC(=N)N)C(=O)N[C@@H](CCCNC(=N)N)C(=O)NCCC(=O)N[C@H](CCCNC(=N)N)C(=O)N[C@@H](CCCNC(=N)N)C(=O)N[C@H](CCCNC(=N)N)C(=O)N[C@@H](CCCNC(=N)N)C(N)=O [SEQ ID NO: 7, rRr-(Apr)-rRr-(Apr)-rRrR-(Apr)-rRrR-NH2] (H-[dR]R[dR][βAla][dR]R[dR][βAla][dR]R[dR]R[βAla][dR]R[dR]R-NH2)
- MIC Range Fusarium spp. (Fusarium spp.; 48 h): 0.12 to 0.5 µg/mL
- EC50 (in vitro [29]): > 300 µg/mL
- MIC C. tropicalis (C. tropicalis [12]): 0.25 µg/mL (≈ 0.103 µM)
- AUC [30, 34]: 4740 ng·h/mL
- Cmax [30, 34]: 1750 ng/mL
- Tmax [30, 34]: 1 h
- half-life [30, 34]: 1.69 h
- AUC [30, 35]: 4420 ng·h/mL
- C0 [30, 35]: 4480 ng/mL
- Tmax [30, 35]: 0 h
- half-life [30, 35]: 1.43 h
- bioavailability ([30]; CD-1, mouse, plasma, IP 7.5 mg/kg, read-out: F (absolute bioavailability)): 74.8%
- Tolerability of the PK doses ([30]; single 5 mg/kg IV and single 7.5 mg/kg IP): well tolerated
- MIC Range Rhizopus arrhizus (Rhizopus arrhizus): 1 to 8 µg/mL
- half-life at 427 μg/mL (Endoproteinase Arg-C; Endoproteinase Arg-C (isolated enzyme), read-out: Degradation half-life with Endoproteinase Arg-C (converted)): ~6 h
- remaining at 6 h, 427 μg/mL (Endoproteinase Arg-C; Endoproteinase Arg-C, peptide 427 μg/mL, enzyme 3 μg/mL, 6 hrs, read-out: Percent peptide remaining after incubation with Endoproteinase Arg-C): 50.5%
- MIC Range Lomentospora prolificans (Lomentospora prolificans): ≤0.12 µg/mL
- MIC C. albicans (C. albicans [17]): 0.5 µg/mL (≈ 0.207 µM)
- MIC C. parapsilosis (C. parapsilosis [18]): 0.12 µg/mL (≈ 0.0497 µM)
- MIC C. glabrata (C. glabrata [19]): 0.5 µg/mL (≈ 0.207 µM)
- MIC Range Coccidioides species (Coccidioides species): 0.25 to 0.5 µg/mL
- MIC50 Candida species (Candida spp.): 0.5 µg/mL (≈ 0.207 µM)
- MIC90 Candida species (Candida spp.): 1 µg/mL (≈ 0.414 µM)
- MTD ([31]; single IP dose, read-out: Tolerated single intraperitoneal dose): 10 to 15 mg/kg
- MTD ([31]; single IV dose via tail vein, read-out: Tolerated single intravenous dose): 5 to 7.5 mg/kg
- Tolerated dose (highest dose evaluated) [32]: 7.5 mg/kg/day
- Clinical or hematological adverse effects ([32]; up to 7.5 mg/kg/day): No significant clinical or hematological adverse effects were observed
- MIC Range Paecilomyces variotii (Paecilomyces variotii): 0.25 µg/mL (≈ 0.103 µM)
- MIC C. krusei (C. krusei [21]): 0.5 µg/mL (≈ 0.207 µM)
- MIC C. auris (C. auris [23]): 1 µg/mL (≈ 0.414 µM)
- MIC C. dubliniensis (C. dubliniensis): 0.25 µg/mL (≈ 0.103 µM)
- MIC C. gattii (C. gattii [26]): 0.25 µg/mL (≈ 0.103 µM)
- MIC C. neoformans (C. neoformans [27]): 0.25 µg/mL (≈ 0.103 µM)
- remaining at 2 h, 5 μM (in vitro [33]): ~100%
- MIC Range Scedosporium spp. (Scedosporium spp.; 72 h): ≤0.12 µg/mL
